# From ChEMBL document CHEMBL1201862, “PubChem BioAssay data set” (2004)
# The source made the active and inactive calls.
# Columns and labels:
# Nonstructural protein 1 = Nonstructural protein 1 (Influenza A virus, UniProt Q194T2); format: functional, Influenza A virus (A/California/07/2009(H1N1))
# [1] = molecular target: T1, Apoptotic protease-activating factor 1 (Homo sapiens, UniProt O14727); format: functional
# T1 sequence (O14727 whole entry): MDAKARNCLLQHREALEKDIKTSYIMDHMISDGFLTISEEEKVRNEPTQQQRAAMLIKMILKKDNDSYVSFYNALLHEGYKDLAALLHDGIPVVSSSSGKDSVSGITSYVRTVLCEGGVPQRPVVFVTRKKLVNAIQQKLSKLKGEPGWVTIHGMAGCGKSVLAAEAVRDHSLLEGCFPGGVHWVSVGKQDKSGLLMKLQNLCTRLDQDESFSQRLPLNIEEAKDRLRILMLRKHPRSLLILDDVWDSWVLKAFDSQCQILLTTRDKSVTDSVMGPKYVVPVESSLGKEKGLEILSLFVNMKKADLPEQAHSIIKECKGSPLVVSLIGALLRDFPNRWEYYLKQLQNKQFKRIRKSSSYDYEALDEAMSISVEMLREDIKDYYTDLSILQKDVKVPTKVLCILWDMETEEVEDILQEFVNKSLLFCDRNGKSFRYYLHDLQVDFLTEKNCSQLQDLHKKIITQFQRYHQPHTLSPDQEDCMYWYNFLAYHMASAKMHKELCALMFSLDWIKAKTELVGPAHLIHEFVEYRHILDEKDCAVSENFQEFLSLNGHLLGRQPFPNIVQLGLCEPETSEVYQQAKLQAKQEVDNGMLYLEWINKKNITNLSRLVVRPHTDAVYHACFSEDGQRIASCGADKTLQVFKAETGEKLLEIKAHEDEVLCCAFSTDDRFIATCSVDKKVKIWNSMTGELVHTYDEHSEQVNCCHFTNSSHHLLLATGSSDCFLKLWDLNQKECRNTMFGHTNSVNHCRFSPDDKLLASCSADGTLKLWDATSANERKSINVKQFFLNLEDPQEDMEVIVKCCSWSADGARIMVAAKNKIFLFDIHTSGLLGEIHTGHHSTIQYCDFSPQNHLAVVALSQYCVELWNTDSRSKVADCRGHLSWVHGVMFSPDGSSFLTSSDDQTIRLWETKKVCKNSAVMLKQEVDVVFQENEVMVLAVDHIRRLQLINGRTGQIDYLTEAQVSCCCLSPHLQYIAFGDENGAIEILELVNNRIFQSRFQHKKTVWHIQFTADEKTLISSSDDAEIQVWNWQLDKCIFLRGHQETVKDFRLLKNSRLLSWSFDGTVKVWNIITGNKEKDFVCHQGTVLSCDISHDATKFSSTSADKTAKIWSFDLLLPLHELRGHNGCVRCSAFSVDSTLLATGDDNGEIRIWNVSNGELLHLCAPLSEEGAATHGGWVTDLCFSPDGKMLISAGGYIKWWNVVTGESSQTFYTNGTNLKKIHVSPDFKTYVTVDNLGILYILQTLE
# INS1 = assay: beta cell apoptosis inhibitors, cytokine rescue, dose response, luminescence, retest (AID 449756); format: functional, cell-based; conditions: Rattus norvegicus;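 also: cell death triggered by IL-1 beta plus TNF-alpha plus IFN-gamma mixture; protective hits raise ATP signal compared with cytokine alone wells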
# [2] = molecular target: Histone-lysine N-methyltransferase NSD2 (Homo sapiens, UniProt O96028); format: biochemical
# [3] = HEp-2 cell cytotoxicity, dose response, cytotoxicity control for RSV inhibitor project, HTS (AID 2410); format: functional; conditions: human respiratory syncytial virus
# [4] = inhibitors of intracellular T. cruzi replication, confirmation, NIH3T3 host cells, beta-gal luminescence (AID 2044); format: functional, cell-based;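 also: intracellular parasites grown in NIH/3T3 mouse fibroblasts as host cells; luminescent beta-galactosidase reporter signal from transgenic T. cruzi replicating inside host cells; inhibitors lower the luminescence signal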
# [5] = molecular target: Tyrosyl-DNA phosphodiesterase 2 (Homo sapiens, UniProt O95551); assay: human TDP2 enzyme inhibitors, dose response, biochemical, epi absorbance, IC50 (AID 743297)
# [6] = THP-1 cell cytotoxicity, dose response, cytotoxicity control for Vif-APOBEC3G degradation inhibitor project, THP-1 cells (AID 1117359); format: functional; conditions: Human immunodeficiency virus 1, THP-1
# Caspase-6 = molecular target: T2, Caspase-6 (Homo sapiens, UniProt P55212); assay: human caspase-6 inhibitors, dose response, biochemical, VEID-R110 fluorescence, cherry-pick (AID 720632)
# T2 sequence (P55212 whole entry): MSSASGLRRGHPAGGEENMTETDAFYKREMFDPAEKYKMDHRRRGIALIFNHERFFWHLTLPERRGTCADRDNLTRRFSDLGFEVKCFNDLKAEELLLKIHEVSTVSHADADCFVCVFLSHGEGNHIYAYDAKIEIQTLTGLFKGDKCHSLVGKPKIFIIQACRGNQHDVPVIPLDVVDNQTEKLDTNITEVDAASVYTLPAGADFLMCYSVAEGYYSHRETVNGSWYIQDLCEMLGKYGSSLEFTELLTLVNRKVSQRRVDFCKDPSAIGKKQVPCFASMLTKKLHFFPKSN
# [7] = molecular target: T3, Heat shock factor protein 1 (Mus musculus, UniProt P38532); assay: inhibition of MG132-induced HSE-luciferase signal, confirmation, cell-based, NIH3T3, luminescence, dose retest (AID 2382); format: functional;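 also: NIH3T3 fibroblasts with HSF1-driven luciferase reporter stressed by proteasome inhibitor MG132; luminescence from HSF1-driven luciferase expression after 8 hours of MG132 stress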
# T3 sequence (P38532 whole entry): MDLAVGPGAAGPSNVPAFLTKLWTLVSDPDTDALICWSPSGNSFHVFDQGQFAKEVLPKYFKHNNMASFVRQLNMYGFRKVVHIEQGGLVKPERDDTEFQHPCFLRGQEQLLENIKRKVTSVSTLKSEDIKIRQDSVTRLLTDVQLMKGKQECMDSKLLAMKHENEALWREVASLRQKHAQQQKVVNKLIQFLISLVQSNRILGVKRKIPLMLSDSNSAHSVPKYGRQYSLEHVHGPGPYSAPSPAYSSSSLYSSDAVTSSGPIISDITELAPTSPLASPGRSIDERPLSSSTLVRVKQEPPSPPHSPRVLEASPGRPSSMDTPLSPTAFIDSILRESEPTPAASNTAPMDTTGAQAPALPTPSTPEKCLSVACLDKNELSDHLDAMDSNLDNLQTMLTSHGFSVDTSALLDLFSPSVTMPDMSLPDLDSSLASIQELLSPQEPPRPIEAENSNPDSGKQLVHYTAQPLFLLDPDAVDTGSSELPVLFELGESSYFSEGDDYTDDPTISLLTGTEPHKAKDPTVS
# Streptococcus = assay: Group A Streptococcus viability loss, dose response, counter-screen for streptokinase expression inhibitor project, luminescence, BacTiterGlo (AID 1915); format: functional, organism-based;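 also: potency for reduction of bacterial viability or growth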
# Sequence of Tyrosyl-DNA phosphodiesterase 2 (O95551 whole entry): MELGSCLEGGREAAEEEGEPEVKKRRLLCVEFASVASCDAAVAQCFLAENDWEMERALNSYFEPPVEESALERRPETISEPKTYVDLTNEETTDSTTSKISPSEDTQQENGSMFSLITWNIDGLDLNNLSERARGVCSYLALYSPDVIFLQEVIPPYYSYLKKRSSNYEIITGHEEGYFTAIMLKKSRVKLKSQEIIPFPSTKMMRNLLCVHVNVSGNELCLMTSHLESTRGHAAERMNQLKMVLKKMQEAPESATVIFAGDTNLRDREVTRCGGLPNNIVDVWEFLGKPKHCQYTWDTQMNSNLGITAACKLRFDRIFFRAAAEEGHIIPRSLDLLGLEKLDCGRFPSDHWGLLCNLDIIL
# Sequence of Histone-lysine N-methyltransferase NSD2 (O96028 whole entry): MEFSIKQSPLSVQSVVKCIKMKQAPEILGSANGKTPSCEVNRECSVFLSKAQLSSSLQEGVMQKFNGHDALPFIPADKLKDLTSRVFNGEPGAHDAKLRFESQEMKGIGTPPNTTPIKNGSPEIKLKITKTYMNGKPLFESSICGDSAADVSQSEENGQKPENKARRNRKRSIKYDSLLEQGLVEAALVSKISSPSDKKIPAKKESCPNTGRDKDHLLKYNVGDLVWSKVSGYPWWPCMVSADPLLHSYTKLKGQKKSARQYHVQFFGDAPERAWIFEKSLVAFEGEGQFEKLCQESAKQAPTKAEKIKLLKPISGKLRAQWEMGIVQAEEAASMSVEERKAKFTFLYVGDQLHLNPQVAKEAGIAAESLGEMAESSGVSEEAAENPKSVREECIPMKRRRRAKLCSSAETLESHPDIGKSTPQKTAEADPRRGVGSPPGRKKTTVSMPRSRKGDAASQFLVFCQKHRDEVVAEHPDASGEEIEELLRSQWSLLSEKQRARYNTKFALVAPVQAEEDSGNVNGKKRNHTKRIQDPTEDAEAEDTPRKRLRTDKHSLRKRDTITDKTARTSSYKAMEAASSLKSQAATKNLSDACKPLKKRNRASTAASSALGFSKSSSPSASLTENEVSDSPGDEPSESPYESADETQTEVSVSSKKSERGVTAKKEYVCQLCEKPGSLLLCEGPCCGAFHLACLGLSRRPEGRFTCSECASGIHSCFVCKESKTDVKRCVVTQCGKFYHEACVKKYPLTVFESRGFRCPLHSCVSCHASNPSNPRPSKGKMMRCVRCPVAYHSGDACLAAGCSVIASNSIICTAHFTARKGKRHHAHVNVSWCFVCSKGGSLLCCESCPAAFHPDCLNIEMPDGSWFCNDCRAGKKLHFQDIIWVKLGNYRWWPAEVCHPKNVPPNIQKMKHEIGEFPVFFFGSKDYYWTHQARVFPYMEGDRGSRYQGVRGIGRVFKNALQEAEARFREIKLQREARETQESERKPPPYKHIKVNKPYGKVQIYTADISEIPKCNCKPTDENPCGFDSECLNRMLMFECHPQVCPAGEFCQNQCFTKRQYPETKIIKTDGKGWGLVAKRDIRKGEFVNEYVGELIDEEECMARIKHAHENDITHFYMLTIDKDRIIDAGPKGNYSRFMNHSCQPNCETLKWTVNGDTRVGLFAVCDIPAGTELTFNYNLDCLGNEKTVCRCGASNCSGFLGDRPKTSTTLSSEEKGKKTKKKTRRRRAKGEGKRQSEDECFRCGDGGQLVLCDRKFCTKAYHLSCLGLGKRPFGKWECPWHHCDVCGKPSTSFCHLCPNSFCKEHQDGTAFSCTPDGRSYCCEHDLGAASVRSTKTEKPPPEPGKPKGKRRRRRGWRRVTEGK
# Sequence of Nonstructural protein 1 (Q194T2 whole entry): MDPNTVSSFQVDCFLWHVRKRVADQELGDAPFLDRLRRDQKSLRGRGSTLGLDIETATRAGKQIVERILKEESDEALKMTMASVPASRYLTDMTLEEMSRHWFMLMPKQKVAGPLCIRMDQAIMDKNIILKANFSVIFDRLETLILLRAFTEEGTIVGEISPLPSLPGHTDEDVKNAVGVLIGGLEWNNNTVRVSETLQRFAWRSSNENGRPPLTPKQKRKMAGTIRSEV
smiles,measurement,setting,value
COC(=O)c1ccccc1NC1=C/C(=N\S(=O)(=O)c2ccc(C(=O)O)cc2)c2ccccc2C1=O,IC50,Nonstructural protein 1,31.8 µM (active)
same,IC50,[1],7.19 µM (active)
same,AC50,INS1,3.34 µM (active)
same,AC50,[2],0.557 µM (active)
NC(=O)C1CCN(C2=C(Cl)C(=O)c3ccccc3C2=O)CC1,CC50,[3],7.88 µM (active)
same,EC50,[4],2.18 µM (active)
same,IC50,[5],13.6 µM (inactive)
same,CC50,[6],9.71 µM (active)
O=c1c2ccccc2nc(/C=C/c2cccnc2)n1Cc1ccccc1,AC50,Caspase-6,11.8 µM (active)
O=C(O)c1ccc(N/N=C/c2ccc(OC(=O)c3ccccc3Cl)cc2)cc1,EC50,[7],0.167 µM (active)
same,EC50,Streptococcus,131 µM (active)
